Tested on: MCF-7 tumors
Assay: Tumor Growth Inhibition in mice bearing MCF-7 tumors treated with Compound 1 and/or ribociclib
Type: in vivo
Method: In the following experiment, mice bearing MCF-7 tumors were treated with either a vehicle control, Compound 1 alone, ribociclib alone, or with a combination of Compound 1 and ribociclib. MCF-7 were cultured in DMEM supplemented with 10% FBS. On the day of implantation, cells were washed 1× with phosphate-buffered saline (PBS). Following washing, cells were pelleted (5 min @ 1000 rpm, RT) and then counted with a hemocytometer. A cell concentration of 5×10^6 per mouse was re-suspended in an appropriate amount of PBS and 1:1 Matrigel. The suspension was kept on ice until implantation. Forty-eight hours prior to cell implantation, a 17-β estradiol pellet (0.36 mg 60-day slow release pellet) was be implanted subcutaneously between the scapulae of each Female Nu/j mouse. […] Once anesthetized, the mice were positioned ventral side up and anesthesia maintained through a fitted nose cone. The MCF-7 cell suspension was injected into the mammary fat pad at a volume of 100 μl containing 5×10^6 cells per mouse. Beginning 5 days post cell implantation, tumors were measured two times weekly (length×width) using a wireless digital calipers in conjunction with UWAVE-R to record measurements. […] The first day of treatment was designated “Day 1”. The mice were dosed either subcutaneously (SC), orally (PO), or by both dose routes, as put forth in the experimental designed summarized in Table 3. Doses were calculated by individual body weights. [table] The first group of mice (Group #1) were administered the vehicle control by oral administration once a day (QD). […] The fifth group of mice (Group #5) were administered Ribociclib at a dose of 35 mg/kg by oral administration once a day (QD). The sixth group of mice (Group #6) were administered Ribociclib at a dose of 70 mg/kg by oral administration once a day (QD). Twice weekly body weights and tumor measurements were recorded for the duration of the study. […] Upon euthanasia, a maximum volume terminal blood sample was obtained via cardiac puncture and split 200 μL in a K2EDTA MiniCollect tube for plasma separation and 420 μL in to a MiniCollect serum separator tube for half the mice for Clinical Chemistry analysis. For the other half of the mice, >200 μL of blood was collected in to K2EDTA MiniCollect tubes (LTT) for CBC analysis. The MiniCollect blood tubes for both plasma and serum were centrifuged at 8000 rpm for 5 minutes. The plasma was retained for biomarker analysis at −80° C., the serum and whole blood (LTT) were further analyzed. Additionally, tumor from the mice were dissected, weighed, and split into two pieces. Half of the tumor was placed into buffered formalin and stored at room temperature. Half of the tumor was snap-frozen in liquid N2, and stored at −80° C. […]

CN(C)C(=O)c1cc2cnc(Nc3ccc(N4CCNCC4)cn3)nc2n1C1CCCC1 [Ribociclib, ribociclib]
TGI % (day 14, Group 5: Ribociclib 35 mg/kg PO QD): 57%
TGI % (day 14, Group 6: Ribociclib 70 mg/kg PO QD): 70%
TGI % (day 18, Group 5: Ribociclib 35 mg/kg PO QD (10 times the dose on day 16)): 60%
TGI % (day 18, Group 6: Ribociclib 70 mg/kg PO QD (10 times the dose on day 16)): 70%

Reference: patent publication US20230404963A1, “COMBINATIONS OF METAP2 INHIBITORS AND CD4/6 INHIBITORS FOR THE TREATMENT OF CANCER” (SynDevRx, Inc., priority 2020, published 2023)
